Assays:
Assay type in all cases: biochemical
Settings in all cases: method of U.S. Ser. No. 11/473,347 or similar
Btk = Btk (Homo sapiens, UniProt Q06187); experiment: Btk kinase activity assay
From the text: (§1) Assays for the activity of kinases, including, but not limited to, Fms, Kit, B-Raf, B-Raf V600E, B-Raf V600E/T5291 and c-Raf-1 are known in the art, for example as described in US Patent Publication Number US20070032519 and U.S. patent application Ser. No. 11/473,347 (see also, PCT publication WO2007002433), the disclosures of which are hereby incorporated by reference with respect to such assays.
(§2) Compounds P-0001 was screened by at least one of the methods described in U.S. patent application Ser. No. 11/473,347, or by similar methods.

Kit = Kit (Homo sapiens, UniProt P10721); experiment: Kit kinase activity assay
Sequence of Kit (P10721 26-976): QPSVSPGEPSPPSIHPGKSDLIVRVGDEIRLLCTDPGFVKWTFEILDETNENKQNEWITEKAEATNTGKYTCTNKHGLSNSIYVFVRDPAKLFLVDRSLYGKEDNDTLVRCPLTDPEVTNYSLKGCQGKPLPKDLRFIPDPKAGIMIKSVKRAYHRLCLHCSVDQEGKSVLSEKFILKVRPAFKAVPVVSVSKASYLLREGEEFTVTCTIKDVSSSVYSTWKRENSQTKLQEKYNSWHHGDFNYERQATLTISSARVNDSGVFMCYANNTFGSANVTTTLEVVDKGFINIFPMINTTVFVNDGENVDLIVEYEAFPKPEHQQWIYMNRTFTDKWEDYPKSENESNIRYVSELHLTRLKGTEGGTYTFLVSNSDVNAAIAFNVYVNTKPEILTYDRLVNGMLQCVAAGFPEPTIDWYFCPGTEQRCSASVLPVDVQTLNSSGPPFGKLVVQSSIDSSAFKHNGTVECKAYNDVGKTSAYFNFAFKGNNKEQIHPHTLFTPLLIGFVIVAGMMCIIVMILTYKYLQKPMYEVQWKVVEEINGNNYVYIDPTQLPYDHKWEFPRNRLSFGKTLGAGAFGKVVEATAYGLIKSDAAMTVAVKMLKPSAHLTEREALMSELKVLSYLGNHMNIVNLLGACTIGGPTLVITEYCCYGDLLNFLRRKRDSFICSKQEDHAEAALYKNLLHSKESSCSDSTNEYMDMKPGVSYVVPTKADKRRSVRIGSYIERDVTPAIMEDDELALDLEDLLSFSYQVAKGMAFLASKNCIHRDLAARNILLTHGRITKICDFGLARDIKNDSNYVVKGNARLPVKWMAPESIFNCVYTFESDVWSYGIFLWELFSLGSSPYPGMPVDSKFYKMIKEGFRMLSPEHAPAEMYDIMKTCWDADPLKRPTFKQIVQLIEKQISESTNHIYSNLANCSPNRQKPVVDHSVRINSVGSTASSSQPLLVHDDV
From the text: as §1, §2

Fms = Fms (Homo sapiens, UniProt P07333); experiment: Fms kinase activity assay
Sequence of Fms (P07333 20-972): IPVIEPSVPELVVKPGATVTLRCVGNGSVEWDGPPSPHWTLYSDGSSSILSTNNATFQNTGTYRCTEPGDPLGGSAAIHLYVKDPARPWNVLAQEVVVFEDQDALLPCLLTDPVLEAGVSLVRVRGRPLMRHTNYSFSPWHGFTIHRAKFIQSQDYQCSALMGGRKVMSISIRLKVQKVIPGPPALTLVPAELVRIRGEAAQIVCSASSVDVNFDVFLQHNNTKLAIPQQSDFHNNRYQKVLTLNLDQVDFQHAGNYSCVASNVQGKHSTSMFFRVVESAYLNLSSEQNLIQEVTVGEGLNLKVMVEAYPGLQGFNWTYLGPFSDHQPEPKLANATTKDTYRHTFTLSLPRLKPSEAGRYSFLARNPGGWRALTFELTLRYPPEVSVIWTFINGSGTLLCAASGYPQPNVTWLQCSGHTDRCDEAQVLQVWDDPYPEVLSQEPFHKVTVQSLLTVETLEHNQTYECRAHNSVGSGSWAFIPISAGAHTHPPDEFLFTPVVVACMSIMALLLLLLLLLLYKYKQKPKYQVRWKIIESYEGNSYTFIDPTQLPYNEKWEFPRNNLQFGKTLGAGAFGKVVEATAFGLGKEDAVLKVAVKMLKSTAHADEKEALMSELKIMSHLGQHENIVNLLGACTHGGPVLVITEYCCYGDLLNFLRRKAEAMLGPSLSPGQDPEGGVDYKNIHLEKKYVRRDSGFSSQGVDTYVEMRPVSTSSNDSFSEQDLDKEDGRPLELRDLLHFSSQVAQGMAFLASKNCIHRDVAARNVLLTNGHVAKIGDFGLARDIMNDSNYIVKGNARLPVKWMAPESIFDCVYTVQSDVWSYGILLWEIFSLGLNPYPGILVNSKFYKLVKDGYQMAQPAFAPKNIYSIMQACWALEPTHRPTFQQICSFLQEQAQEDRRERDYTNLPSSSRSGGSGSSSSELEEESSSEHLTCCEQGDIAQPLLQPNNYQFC
From the text: as §1, §2

Kdr = Kdr (Homo sapiens, UniProt P35968); experiment: Kdr kinase activity assay
Sequence of Kdr (P35968 20-1356): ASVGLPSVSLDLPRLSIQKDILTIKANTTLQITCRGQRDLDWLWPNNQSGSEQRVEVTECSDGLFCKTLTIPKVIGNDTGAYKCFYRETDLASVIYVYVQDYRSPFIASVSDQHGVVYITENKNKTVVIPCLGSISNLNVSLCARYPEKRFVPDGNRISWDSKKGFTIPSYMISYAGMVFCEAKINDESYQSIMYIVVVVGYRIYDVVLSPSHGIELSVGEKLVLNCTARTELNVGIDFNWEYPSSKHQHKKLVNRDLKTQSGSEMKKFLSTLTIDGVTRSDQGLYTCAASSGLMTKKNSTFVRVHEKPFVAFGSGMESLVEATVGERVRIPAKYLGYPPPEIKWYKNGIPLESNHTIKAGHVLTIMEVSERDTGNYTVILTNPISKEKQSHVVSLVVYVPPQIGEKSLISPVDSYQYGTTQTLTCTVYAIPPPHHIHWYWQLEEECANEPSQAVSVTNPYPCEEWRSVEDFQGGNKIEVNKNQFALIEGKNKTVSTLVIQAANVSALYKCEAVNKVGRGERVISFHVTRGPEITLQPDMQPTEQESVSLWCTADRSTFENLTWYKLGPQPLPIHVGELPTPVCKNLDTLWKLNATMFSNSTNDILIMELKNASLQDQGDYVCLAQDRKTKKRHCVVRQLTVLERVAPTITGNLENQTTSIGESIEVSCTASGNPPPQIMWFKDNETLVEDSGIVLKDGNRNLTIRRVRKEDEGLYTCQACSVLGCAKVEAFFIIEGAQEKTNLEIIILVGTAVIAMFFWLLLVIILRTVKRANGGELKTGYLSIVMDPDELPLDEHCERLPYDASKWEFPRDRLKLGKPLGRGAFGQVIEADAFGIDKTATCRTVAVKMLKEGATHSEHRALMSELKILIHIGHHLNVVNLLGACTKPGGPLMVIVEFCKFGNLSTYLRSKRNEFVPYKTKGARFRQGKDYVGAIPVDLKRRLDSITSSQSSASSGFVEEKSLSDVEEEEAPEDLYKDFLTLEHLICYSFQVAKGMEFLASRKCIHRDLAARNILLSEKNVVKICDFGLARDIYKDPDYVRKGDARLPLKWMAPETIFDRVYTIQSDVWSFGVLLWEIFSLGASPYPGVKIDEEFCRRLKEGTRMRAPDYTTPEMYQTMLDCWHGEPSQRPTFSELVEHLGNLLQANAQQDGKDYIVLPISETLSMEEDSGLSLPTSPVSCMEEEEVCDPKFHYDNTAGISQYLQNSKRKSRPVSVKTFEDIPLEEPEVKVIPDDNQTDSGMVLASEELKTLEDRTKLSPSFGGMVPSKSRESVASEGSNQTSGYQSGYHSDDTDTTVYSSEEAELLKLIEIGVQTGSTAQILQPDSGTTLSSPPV
From the text: as §1, §2

Measured: IC50

Sequence of Btk (Q06187 whole entry): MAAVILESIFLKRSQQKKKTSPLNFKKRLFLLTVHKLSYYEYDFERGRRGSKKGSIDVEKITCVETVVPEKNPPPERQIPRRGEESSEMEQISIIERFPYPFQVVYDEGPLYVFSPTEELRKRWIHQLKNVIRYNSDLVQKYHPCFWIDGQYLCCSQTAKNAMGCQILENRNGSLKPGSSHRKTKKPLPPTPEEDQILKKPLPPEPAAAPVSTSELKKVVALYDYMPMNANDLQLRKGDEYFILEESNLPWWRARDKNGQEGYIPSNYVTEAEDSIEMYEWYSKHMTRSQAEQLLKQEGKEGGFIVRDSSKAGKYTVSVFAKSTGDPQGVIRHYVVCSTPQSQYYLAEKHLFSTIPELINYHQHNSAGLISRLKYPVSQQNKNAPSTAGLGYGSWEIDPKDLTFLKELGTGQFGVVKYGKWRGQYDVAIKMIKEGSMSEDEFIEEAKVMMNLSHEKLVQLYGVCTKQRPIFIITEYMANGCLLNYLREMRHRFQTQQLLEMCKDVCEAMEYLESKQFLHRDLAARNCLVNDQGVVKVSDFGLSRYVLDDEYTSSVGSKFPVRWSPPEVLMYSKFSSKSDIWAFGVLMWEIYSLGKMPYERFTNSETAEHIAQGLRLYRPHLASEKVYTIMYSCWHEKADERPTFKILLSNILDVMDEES

COc1ccc(CNc2ccc(Cc3c[nH]c4nccnc34)cn2)cn1 [Compound P-0001, (6-methoxy-pyridin-3-ylmethyl)-[5-(5H-pyrrolo[2,3-b]pyrazin-7-ylmethyl)-pyridin-2-yl]-amine]
< 10 µM: all assays above

Reference: patent US8119637B2, “Substituted pyrrolo[2,3-b]pyrazines and methods for kinase modulation, and indications therefor” (Plexxikon Inc., priority 2008, dated 2012)
